Results published in patent publication US7728012B2, “Carboxamide compounds and their use as calpain inhibitors” (Abbott GmbH & Co. KG, priority 2006, dated 2010).

Experiments:
Assay type in all cases: biochemical
[1] = target: T1, cathepsin K activated from recombinant human procathepsin K (Homo sapiens, UniProt P43235); test: Cathepsin K kinetic fluorescence enzyme inhibition assay; conditions: selectivity ratio versus calpain I
T1 construct: purchased Calbiochem 342001; host or cells: E. coli
T1 sequence (P43235 115-329): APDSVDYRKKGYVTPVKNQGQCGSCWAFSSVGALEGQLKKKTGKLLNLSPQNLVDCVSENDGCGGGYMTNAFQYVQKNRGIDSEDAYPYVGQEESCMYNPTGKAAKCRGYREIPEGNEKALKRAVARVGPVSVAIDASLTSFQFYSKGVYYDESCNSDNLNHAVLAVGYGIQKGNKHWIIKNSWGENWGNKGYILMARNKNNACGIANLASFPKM

[2] = target: T2, calpain-I isolated from human erythrocytes (Homo sapiens, UniProt P07384); test: Calpain I kinetic fluorescence enzyme inhibition assay; conditions: apparent Ki from IC50 by Cheng-Prussoff; average of 2 to 4 dose-effect plots
T2 construct: calpain-I—isolated from human erythrocytes; purchased Calbiochem 208713; host or cells: human erythrocytes (tissue isolate)
T2 sequence (P07384 1-714): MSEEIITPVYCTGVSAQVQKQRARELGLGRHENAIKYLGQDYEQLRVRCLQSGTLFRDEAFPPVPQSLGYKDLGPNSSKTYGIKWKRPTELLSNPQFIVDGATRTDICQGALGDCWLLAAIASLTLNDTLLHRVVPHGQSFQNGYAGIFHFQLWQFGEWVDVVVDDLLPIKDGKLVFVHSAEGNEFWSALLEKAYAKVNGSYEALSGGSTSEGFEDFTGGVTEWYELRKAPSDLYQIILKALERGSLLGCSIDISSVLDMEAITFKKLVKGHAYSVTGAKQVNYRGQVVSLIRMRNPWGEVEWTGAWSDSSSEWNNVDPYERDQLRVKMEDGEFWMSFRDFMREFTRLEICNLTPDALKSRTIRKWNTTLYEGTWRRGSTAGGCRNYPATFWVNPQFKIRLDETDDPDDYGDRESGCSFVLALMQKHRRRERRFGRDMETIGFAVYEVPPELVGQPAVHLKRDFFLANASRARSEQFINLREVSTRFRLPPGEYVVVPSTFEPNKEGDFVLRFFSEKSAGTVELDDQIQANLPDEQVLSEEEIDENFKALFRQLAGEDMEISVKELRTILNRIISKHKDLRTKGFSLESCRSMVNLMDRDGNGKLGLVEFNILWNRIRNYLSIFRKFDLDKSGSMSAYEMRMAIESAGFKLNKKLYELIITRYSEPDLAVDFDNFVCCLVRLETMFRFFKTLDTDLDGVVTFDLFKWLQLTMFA
T2 sequence (P04632 1-268 partner): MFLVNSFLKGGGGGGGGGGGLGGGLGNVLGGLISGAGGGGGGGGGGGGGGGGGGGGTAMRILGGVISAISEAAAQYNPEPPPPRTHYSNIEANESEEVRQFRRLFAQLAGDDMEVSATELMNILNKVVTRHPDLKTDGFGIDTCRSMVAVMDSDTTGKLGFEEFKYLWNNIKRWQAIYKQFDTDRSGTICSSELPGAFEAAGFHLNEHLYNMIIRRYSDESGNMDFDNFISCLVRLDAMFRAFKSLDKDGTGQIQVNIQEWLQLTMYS

[3] = target: T3, cathepsin L isolated from human liver (Homo sapiens, UniProt P07711); test: Cathepsin L kinetic fluorescence enzyme inhibition assay; conditions: selectivity ratio versus calpain I
T3 construct: cathepsin L—isolated from human liver; purchased Calbiochem 219402; host or cells: human liver (tissue isolate)
Method in brief: (§1)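 Inhibition is measured at room temperature in cysteine-containing MES buffer, pH 6.0, by continuous fluorescence at 460 nm. Cathepsin S (0.5 nM) uses 20 μM Z-Val-Val-Arg-AMC; L (1 nM) and B (0.25 nM) use Z-Phe-Arg-AMC at 2 and 100 μM respectively.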

[4] = target: T4, recombinant human cathepsin S (Homo sapiens, UniProt P25774); test: Cathepsin S kinetic fluorescence enzyme inhibition assay; conditions: selectivity ratio versus calpain I
T4 construct: purchased Calbiochem 219343; host or cells: E. coli
Method in brief: as §1

[5] = target: T5, cathepsin B isolated from human liver (Homo sapiens, UniProt P07858); test: Cathepsin B kinetic fluorescence enzyme inhibition assay; conditions: selectivity ratio versus calpain I
T5 construct: cathepsin B—isolated from human liver; purchased Calbiochem 219362; host or cells: human liver (tissue isolate)
Method in brief: as §1

T4 sequence (P25774 115-331): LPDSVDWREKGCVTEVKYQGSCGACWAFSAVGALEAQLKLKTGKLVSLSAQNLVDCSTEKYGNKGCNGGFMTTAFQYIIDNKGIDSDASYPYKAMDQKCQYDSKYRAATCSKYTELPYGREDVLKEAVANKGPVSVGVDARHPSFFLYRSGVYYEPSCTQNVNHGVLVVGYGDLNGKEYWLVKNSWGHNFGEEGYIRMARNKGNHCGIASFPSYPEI
T3 sequence (P07711 114-333): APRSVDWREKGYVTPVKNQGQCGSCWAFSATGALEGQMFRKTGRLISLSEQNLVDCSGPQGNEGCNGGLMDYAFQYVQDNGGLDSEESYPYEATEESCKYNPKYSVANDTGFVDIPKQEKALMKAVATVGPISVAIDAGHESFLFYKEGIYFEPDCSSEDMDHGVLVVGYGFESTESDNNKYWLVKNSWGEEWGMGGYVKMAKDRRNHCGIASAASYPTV

Ki [2] [nM]	Compound	Sel cat. K (Ki(cathepsin K)/Ki(calpain) ratio) [1]	Sel cat. L (Ki(cathepsin L)/Ki(calpain) ratio) [3]	Sel cat. S (Ki(cathepsin S)/Ki(calpain) ratio) [4]	Sel cat. B (Ki(cathepsin B)/Ki(calpain) ratio) [5]
≤ 40	COc1ccc(CC(NC(=O)c2cccnc2-n2ccc(-c3ccc(F)cc3F)n2)C(=O)C(N)=O)cc1 (stereo not drawn) [Example 97, N-(3-Amino-1-{[4-(methyloxy)phenyl]methyl}-2,3-dioxopropyl)-2-[3-(2,4-difluorophenyl)-1H-pyrazol-1-yl]pyridine-3-carboxamide]	+ (10≦Ki(cathepsin K)/Ki(calpain)<30)	++ (Ki(cathepsin L)/Ki(calpain) ratio of ≧50)	++ (Ki(cathepsin S)/Ki(calpain) ratio of ≧100)	++ (Ki(cathepsin B)/Ki(calpain) ratio of ≧30)
≤ 40	COc1ccc(CC(NC(=O)c2cccnc2-n2ccc(-c3cccc4ccccc34)n2)C(=O)C(N)=O)cc1 (stereo not drawn) [Example 135, N-(3-Amino-1-{[4-(methyloxy)phenyl]methyl}-2,3-dioxopropyl)-2-(3-naphthalen-1-yl-1H-pyrazol-1-yl)pyridine-3-carboxamide]	++ (Ki(cathepsin K)/Ki(calpain) ratio of ≧30)	++ (Ki(cathepsin L)/Ki(calpain) ratio of ≧50)	++ (Ki(cathepsin S)/Ki(calpain) ratio of ≧100)	++ (Ki(cathepsin B)/Ki(calpain) ratio of ≧30)
≤ 40	NC(=O)C(=O)C(Cc1ccccc1)NC(=O)c1cccnc1-n1ccc(-c2ccc(N3CCOCC3)cc2F)n1 (stereo not drawn) [Example 102, N-[3-Amino-2,3-dioxo-1-(phenylmethyl)propyl]-2-[3-(2-fluoro-4-morpholin-4-ylphenyl)-1H-pyrazol-1-yl]pyridine-3-carboxamide]	++ (Ki(cathepsin K)/Ki(calpain) ratio of ≧30)	++ (Ki(cathepsin L)/Ki(calpain) ratio of ≧50)	++ (Ki(cathepsin S)/Ki(calpain) ratio of ≧100)	+ (10≦Ki(cathepsin B)/Ki(calpain)<30)
40 to 100	NC(=O)C(=O)C(Cc1ccccc1)NC(=O)c1cccnc1-n1ccc(-c2cccc3cccnc23)n1 (stereo not drawn) [Example 160, N-[3-amino-2,3-dioxo-1-(phenylmethyl)propyl]-2-(3-quinolin-8-yl-1H-pyrazol-1-yl)pyridine-3-carboxamide]	++ (Ki(cathepsin K)/Ki(calpain) ratio of ≧30)	++ (Ki(cathepsin L)/Ki(calpain) ratio of ≧50)	++ (Ki(cathepsin S)/Ki(calpain) ratio of ≧100)	++ (Ki(cathepsin B)/Ki(calpain) ratio of ≧30)
≤ 40	NC(=O)C(=O)C(Cc1ccccc1)NC(=O)c1cccnc1-n1cc2c(n1)-c1ccccc1OC2 (stereo not drawn) [Example 100, N-[3-Amino-2,3-dioxo-1-(phenylmethyl)propyl]-2-chromeno[4,3-c]pyrazol-2(4H)-ylpyridine-3-carboxamide]	++ (Ki(cathepsin K)/Ki(calpain) ratio of ≧30)	++ (Ki(cathepsin L)/Ki(calpain) ratio of ≧50)	++ (Ki(cathepsin S)/Ki(calpain) ratio of ≧100)	+ (10≦Ki(cathepsin B)/Ki(calpain)<30)
40 to 100	NC(=O)C(=O)C(Cc1ccccc1)NC(=O)c1cccnc1-n1ccc(-c2cccc(C(F)(F)F)c2Cl)n1 (stereo not drawn) [Example 155, N-[3-Amino-2,3-dioxo-1-(phenylmethyl)propyl]-2-{3-[2-chloro-3-(trifluoromethyl)phenyl]-1H-pyrazol-1-yl}pyridine-3-carboxamide]	++ (Ki(cathepsin K)/Ki(calpain) ratio of ≧30)	++ (Ki(cathepsin L)/Ki(calpain) ratio of ≧50)	++ (Ki(cathepsin S)/Ki(calpain) ratio of ≧100)	++ (Ki(cathepsin B)/Ki(calpain) ratio of ≧30)
≤ 40	COc1ccc2c(c1)-c1nn(-c3ncccc3C(=O)NC(Cc3ccccc3)C(=O)C(N)=O)cc1CO2 (stereo not drawn) [Example 183, N-[3-Aamino-2,3-dioxo-1-(phenylmethyl)propyl]-2-[8-(methyloxy)chromeno[4,3-c]pyrazol-2(4H)-yl]pyridine-3-carboxamide]	+ (10≦Ki(cathepsin K)/Ki(calpain)<30)	++ (Ki(cathepsin L)/Ki(calpain) ratio of ≧50)	++ (Ki(cathepsin S)/Ki(calpain) ratio of ≧100)	+ (10≦Ki(cathepsin B)/Ki(calpain)<30)
≤ 40	NC(=O)C(=O)C(Cc1ccccc1)NC(=O)c1cccnc1-n1ccc(-c2ccccc2)n1 (stereo not drawn) [Example 5, N-(3-Amino-1-benzyl-2,3-dioxopropyl)-2-(3-phenyl-1H-pyrazol-1-yl)nicotinamide]	+ (10≦Ki(cathepsin K)/Ki(calpain)<30)	++ (Ki(cathepsin L)/Ki(calpain) ratio of ≧50)	++ (Ki(cathepsin S)/Ki(calpain) ratio of ≧100)	+ (10≦Ki(cathepsin B)/Ki(calpain)<30)
≤ 40	NC(=O)C(=O)C(Cc1ccccc1)NC(=O)c1cccnc1-n1ccc(-c2sccc2Cl)n1 (stereo not drawn) [Example 109, N-[3-Amino-2,3-dioxo-1-(phenylmethyl)propyl]-2-[3-(3-chloro-2-thienyl)-1H-pyrazol-1-yl]pyridine-3-carboxamide]	++ (Ki(cathepsin K)/Ki(calpain) ratio of ≧30)	++ (Ki(cathepsin L)/Ki(calpain) ratio of ≧50)	++ (Ki(cathepsin S)/Ki(calpain) ratio of ≧100)	++ (Ki(cathepsin B)/Ki(calpain) ratio of ≧30)
≤ 40	NC(=O)C(=O)C(Cc1ccccc1)NC(=O)c1cccnc1-n1cc2c(n1)-c1ccccc1CC2 (stereo not drawn) [Example 63, N-(3-Amino-1-benzyl-2,3-dioxopropyl)-2-(4,5-dihydro-2H-benzo[g]indazol-2-yl)nicotinamide]	+ (10≦Ki(cathepsin K)/Ki(calpain)<30)	++ (Ki(cathepsin L)/Ki(calpain) ratio of ≧50)	++ (Ki(cathepsin S)/Ki(calpain) ratio of ≧100)	+ (10≦Ki(cathepsin B)/Ki(calpain)<30)
40 to 100	CS(=O)(=O)Nc1cnc(-n2ccc(-c3ccccc3)n2)c(C(=O)NC(Cc2ccccc2)C(=O)C(N)=O)c1 (stereo not drawn) [Example 158, N-[3-Amino-2,3-dioxo-1-(phenylmethyl)propyl]-5-[(methylsulfonyl)amino]-2-(3-phenyl-1H-pyrazol-1-yl)pyridine-3-carboxamide]	++ (Ki(cathepsin K)/Ki(calpain) ratio of ≧30)	++ (Ki(cathepsin L)/Ki(calpain) ratio of ≧50)	++ (Ki(cathepsin S)/Ki(calpain) ratio of ≧100)	++ (Ki(cathepsin B)/Ki(calpain) ratio of ≧30)

Compound	Ki [2] [nM]	Sel cat. K (Ki(cathepsin K)/Ki(calpain) ratio) [1]	Sel cat. L (Ki(cathepsin L)/Ki(calpain) ratio) [3]	Sel cat. S (Ki(cathepsin S)/Ki(calpain) ratio) [4]	Sel cat. B (Ki(cathepsin B)/Ki(calpain) ratio) [5]
N-[3-Amino-2,3-dioxo-1-(phenylmethyl)propyl]-2-[3-(3,5-dichlorophenyl)-1H-pyrazol-1-yl]pyridine-3-carboxamide [Example 89]	40 to 100	+ (10≦Ki(cathepsin K)/Ki(calpain)<30)	++ (Ki(cathepsin L)/Ki(calpain) ratio of ≧50)	++ (Ki(cathepsin S)/Ki(calpain) ratio of ≧100)	+ (10≦Ki(cathepsin B)/Ki(calpain)<30)
